Where two headings read alike, the source gives them in different places.
Target: SARS-CoV-2 Papain-Like Protease (PLpro) (Severe acute respiratory syndrome coronavirus 2 (2019-nCoV) (SARS-CoV-2), UniProt P0DTD1)
Test: biochemical
Conditions: read-out: PLpro IC50
[1] = PLpro enzymatic fluorescence assay, class symbols
[2] = SARS-CoV-2 PLpro enzymatic fluorescence assay

Compound	IC50 [1] [nM]	IC50 [2] [nM]
Cc1ccc(OC[C@@H]2CCN2C)cc1C(=O)NC1(c2cc(-c3ccc(CO)s3)cc3ncccc23)CC1 [Compound 753, (S)-N-(1-(7-(5-(Hydroxymethyl)thiophen-2-yl)quinolin-5-yl)cyclopropyl)-2-methyl-5-((1-methylazetidin-2-yl)methoxy)benzamide]	< 100	–
Cc1ncc(-c2cc(C3(NC(=O)c4cc(OC[C@@H]5CCN5)ccc4C)CC3)c3cccnc3c2)o1 [Compound 698, (S)-5-(Azetidin-2-ylmethoxy)-2-methyl-N-(1-(7-(2-methyloxazol-5-yl)quinolin-5-yl)cyclopropyl)benzamide]	< 100	–
CCSc1cc(C2(NC(=O)c3cc(OCCN(C)C)ccc3C)CC2)c2ccccc2c1 [Compound 408, 5-(2-(Dimethylamino)ethoxy)-N-(1-(3-(ethylthio)naphthalen-1-yl)cyclopropyl)-2-methylbenzamide]	–	< 100
Cc1cc(C#Cc2ccccc2)c(N)cc1C(=O)NC1(c2cccc3ccccc23)CC1 [Compound 217, 5-Amino-2-methyl-N-(1-(naphthalen-1-yl)cyclopropyl)-4-(phenylethynyl)benzamide]	–	> 5000
Cc1ccc(Nc2ccc[nH]c2=O)cc1C(=O)N[C@H](C)c1cccc2ccccc12 [Compound 119, (R)-2-Methyl-N-(1-(naphthalen-1-yl)ethyl)-5-((2-oxo-1,2-dihydropyridin-3-yl)amino)benzamide]	–	1000 to 5000
Cc1cc(C2(NC(=O)c3cc(OC[C@@H]4CCN4C)ccc3C)CC2)c2ccc(C)nc2c1 [Compound 802, (S)-N-(1-(2,7-Dimethylquinolin-5-yl)cyclopropyl)-2-methyl-5-((1-methylazetidin-2-yl)methoxy)benzamide]	< 100	–
Cc1ccc(OC[C@H]2C[C@H](F)CN2C)cc1C(=O)NC1(c2cccc3ccccc23)CC1 (single isomer, unassigned) [Compound 441]	–	< 100
Cc1ccc(OC[C@@H]2CCN2)cc1C(=O)NC1(c2cc(-c3ncccn3)cc3ncccc23)CC1 [Compound 682, (S)-5-(Azetidin-2-ylmethoxy)-2-methyl-N-(1-(7-(pyrimidin-2-yl)quinolin-5-yl)cyclopropyl)benzamide]	< 100	–
Cc1ccc(OC[C@@H]2CCN2C)cc1C(=O)NC1(c2cc(-c3cn[nH]c3)cc3ncccc23)CC1 [Compound 652, (S)-N-(1-(7-(1H-Pyrazol-4-yl)quinolin-5-yl)cyclopropyl)-2-methyl-5-((1-methylazetidin-2-yl)methoxy)benzamide]	< 100	–
Cc1ccc(OCC(C)(C)N)cc1C(=O)NC1(c2cccc3ccccc23)CC1 [Compound 352, 5-(2-Amino-2-methylpropoxy)-2-methyl-N-(1-(naphthalen-1-yl)cyclopropyl)benzamide]	–	< 100
Cc1ccc(OCCN(C)C)cc1C(=O)NC1(c2cccc3ccoc23)CC1 [Compound 370, N-(1-(Benzofuran-7-yl)cyclopropyl)-5-(2-(dimethylamino)ethoxy)-2-methylbenzamide]	–	100 to 1000
Cc1ccc(OCCN(C)C)cc1C(=O)NC1(c2cc(C#N)cc3ccccc23)CC1 [Compound 443, N-(1-(3-Cyanonaphthalen-1-yl)cyclopropyl)-5-(2-(dimethylamino)ethoxy)-2-methylbenzamide]	–	< 100
C=Cc1cc(C2(NC(=O)c3cc(OC[C@@H]4CCN4C)c(NC(C)=O)cc3C)CC2)c2cccnc2c1 [Compound 746, (S)-4-Acetamido-2-methyl-5-((1-methylazetidin-2-yl)methoxy)-N-(1-(7-vinylquinolin-5-yl)cyclopropyl)benzamide]	< 100	–
Cc1ccc(OCCN(C)C)cc1C(=O)NC1(c2cccc3cnccc23)CC1 [Compound 299, 5-(2-(Dimethylamino)ethoxy)-N-(1-(isoquinolin-5-yl)cyclopropyl)-2-methylbenzamide]	–	< 100
COc1cc(C2(NC(=O)c3cc(O[C@H]4CC[C@@H]5CNCCN5C4)ccc3C)CC2)c2cccnc2c1 [Compound 790]	< 100	–
CC(c1cc(-c2cccs2)cc2ccccc12)N1CCC(C(=O)NCc2cccc(F)c2)CC1 (stereo not drawn) [Compound 599, N-(3-Fluorobenzyl)-1-(1-(3-(thiophen-2-yl)naphthalen-1-yl)ethyl)piperidine-4-carboxamide]	1000 to 5000	–
Cc1ccc(OCC2COCCN2C)cc1C(=O)NC1(c2cccc3ccccc23)CC1 (stereo not drawn) [Compound 302, 2-Methyl-5-((4-methylmorpholin-3-yl)methoxy)-N-(1-(naphthalen-1-yl)cyclopropyl)benzamide]	–	100 to 1000
Cc1cc2sc(CN)nc2cc1C(=O)NC1(c2cccc3ccccc23)CC1 [Compound 245, 2-(Aminomethyl)-6-methyl-N-(1-(naphthalen-1-yl)cyclopropyl)benzo[d]thiazole-5-carboxamide]	–	< 100
Cc1ccc(OCCN(C)C)cc1C(=O)NC1(c2cccc3ccsc23)CC1 [Compound 368, N-(1-(Benzo[b]thiophen-7-yl)cyclopropyl)-5-(2-(dimethylamino)ethoxy)-2-methylbenzamide]	–	100 to 1000
Cc1ccc(OC[C@@H]2CCN2C)cc1C(=O)NC1(c2cc(O)nc3cc(F)ccc23)CC1 [Compound 542, (S)-N-(1-(7-Fluoro-2-hydroxyquinolin-4-yl)cyclopropyl)-2-methyl-5-((1-methylazetidin-2-yl)methoxy)benzamide]	–	< 100

Compound	IC50 [1] [nM]	IC50 [2] [nM]
CC#Cc1cc(C2(NC(=O)c3cc(OC[C@@H]4CCN4C)ccc3C)CC2)c2cccnc2c1 [Compound 721, (S)-2-Methyl-5-((1-methylazetidin-2-yl)methoxy)-N-(1-(7-(prop-1-yn-1-yl)quinolin-5-yl)cyclopropyl)benzamide]	< 100	–
Cc1ccc(OC[C@@H]2CCN2)cc1C(=O)NC1(c2cc(-c3cccs3)cc3ncccc23)CC1 [Compound 608, (S)-5-(Azetidin-2-ylmethoxy)-2-methyl-N-(1-(7-(thiophen-2-yl)quinolin-5-yl)cyclopropyl)benzamide]	< 100	–
Cc1ccc(OC[C@@H]2CCN2C)cc1C(=O)NC1(c2cc(NCc3ccccc3)cc3ncccc23)CC1 [Compound 747, (S)—N-(1-(7-(Benzylamino)quinolin-5-yl)cyclopropyl)-2-methyl-5-((1-methylazetidin-2-yl)methoxy)benzamide]	< 100	–
CC(=O)c1cc(C2(NC(=O)c3cc(OC[C@@H]4CCN4C)ccc3C)CC2)c2cccnc2c1 [Compound 638, (S)-N-(1-(7-Acetylquinolin-5-yl)cyclopropyl)-2-methyl-5-((1-methylazetidin-2-yl)methoxy)benzamide]	< 100	–
CNCCOc1ccc(C)c(C(=O)NC2(c3cccc4ncccc34)CC2)c1 [Compound 385, 2-Methyl-5-(2-(methylamino)ethoxy)-N-(1-(quinolin-5-yl)cyclopropyl)benzamide]	–	< 100
Cc1ccc(OC[C@@H]2CCN2)cc1C(=O)NC1(c2cc(-c3ccc(=O)[nH]c3)cc3ncccc23)CC1 [Compound 674, (S)-5-(Azetidin-2-ylmethoxy)-2-methyl-N-(1-(7-(6-oxo-1,6-dihydropyridin-3-yl)quinolin-5-yl)cyclopropyl)benzamide]	< 100	–
Cc1ccc(OC[C@@H]2CCN2C)cc1C(=O)NC1(c2cc(OCC(C)(C)C)cc3ncccc23)CC1 [Compound 787, (S)-2-Methyl-5-((1-methylazetidin-2-yl)methoxy)-N-(1-(7-(neopentyloxy)quinolin-5-yl)cyclopropyl)benzamide]	< 100	–
Cc1ccc(OCC2CCN2C)cc1C(=O)NC1(c2cccc3nc(F)ccc23)CC1 (stereo not drawn) [Compound 529, N-(1-(2-Fluoroquinolin-5-yl)cyclopropyl)-2-methyl-5-((1-methylazetidin-2-yl)methoxy)benzamide]	–	< 100
COc1cc(C2(NC(=O)c3cc(OCC4Cc5ccccc5CN4C)ccc3C)CC2)c2cccnc2c1 (stereo not drawn) [Compound 799, N-(1-(7-Methoxyquinolin-5-yl)cyclopropyl)-2-methyl-5-((2-methyl-1,2,3,4-tetrahydroisoquinolin-3-yl)methoxy)benzamide]	< 100	–
Cc1ccc(OCCN(C)C)cc1C(=O)NC1(c2cn(-c3ccccc3)c3ccccc23)CC1 [Compound 395, 5-(2-(Dimethylamino)ethoxy)-2-methyl-N-(1-(1-phenyl-1H-indol-3-yl)cyclopropyl)benzamide]	–	< 100
Cc1ccc(NCCN(C)C)cc1C(=O)NC1(c2cccc3ccccc23)CC1 [Compound 412]	–	< 100
Cc1ccc(OCC(C)N)cc1C(=O)NC1(c2cccc3ccccc23)CC1 (stereo not drawn) [Compound 324, 5-(2-Aminopropoxy)-2-methyl-N-(1-(naphthalen-1-yl)cyclopropyl)benzamide]	–	< 100
COCCC(NCc1cc([N+](=O)[O-])ccc1C)c1cccc2ccccc12 (stereo not drawn) [Compound 113]	> 5000	–
Cc1ccc(OC[C@@H]2CCN2C)cc1C(=O)NC1(c2cc(N3CCOCC3)cc3ncccc23)CC1 [Compound 740, (S)-2-Methyl-5-((1-methylazetidin-2-yl)methoxy)-N-(1-(7-morpholinoquinolin-5-yl)cyclopropyl)benzamide]	< 100	–
Cc1ccc(OC[C@H]2C[C@@H](F)CN2)cc1C(=O)NC1(c2cccc3ccccc23)CC1 (single isomer, unassigned) [Compound 438]	–	< 100
Cc1ccc(-c2cc(C3(NC(=O)c4cc(OC[C@@H]5CCN5)ccc4C)CC3)c3cccnc3c2)o1 [Compound 646, (S)-5-(Azetidin-2-ylmethoxy)-2-methyl-N-(1-(7-(5-methylfuran-2-yl)quinolin-5-yl)cyclopropyl)benzamide]	< 100	–
C#CC(NC(=O)c1cc(OCC2CCN2C)ccc1C)c1cccc2ccccc12 (stereo not drawn) [Compound 448, 2-Methyl-5-((1-methylazetidin-2-yl)methoxy)-N-(1-(naphthalen-1-yl)prop-2-yn-1-yl)benzamide]	–	1000 to 5000
C=Cc1cc(C2(NC(=O)c3cc(OCC4CCN4C)ccc3C)CC2)c2ccccc2c1 (stereo not drawn) [Compound 517, 2-Methyl-5-((1-methylazetidin-2-yl)methoxy)-N-(1-(3-vinylnaphthalen-1-yl)cyclopropyl)benzamide]	< 100	–
Cc1ccc(OCC2CCN2C)cc1C(=O)NC1(c2cccc3cnc(O)cc23)CC1 (stereo not drawn) [Compound 509, N-(1-(3-Hydroxyisoquinolin-5-yl)cyclopropyl)-2-methyl-5-((1-methylazetidin-2-yl)methoxy)benzamide]	–	100 to 1000

Reference: patent publication US20250025443A1, “COMPOUNDS AND METHODS FOR TREATING CORONA VIRUSES” (CLEAR CREEK BIO, INC., priority 2021, published 2025)
